{"source": "patent US20240085425A1", "about": "“BIOMARKER AND APPLICATION THEREOF” (ADLAI NORTYE BIOPHARMA CO., LTD., priority 2022, published 2024)", "format_in_all_cases": "cell-based", "key": {"DU4475": {"system": "DU4475", "assay": "Tumor cell proliferation inhibition (Promega cell viability, 72 h)", "conditions": "Homo sapiens, DU-4475, DU4475 cells, read-out: Anti-proliferation IC50", "description": "(§1) The cell lines used in the experiment are various tumor cells, including DU4475, Colo205, HepG2, PLC/PRF/5, BT-20, LS174T, NCI-H929, HCT116, SW620, SK-CO-1, SW480, DLD1, HT-29, SW900, SW1417, HuH7, H2009, PANC-1, SW48, Duadi, H358, HCT15, 22Rv1, Hela, RKO, Raji, Jurkat, NCI-H716, MDA-MB-231, NCI-H157 and THP1, and the inhibitory effect of the compound of the present disclosure on the proliferation of these tumor cells is determined, in order to screen out sensitive cell types of the compound of the present disclosure.\n(§2) DU4475, Colo205, HepG2, PLC/PRF/5, BT-20, LS174T, NCI-H929, HCT116, SW620, SK-CO-1, SW480, DLD1, HT-29, SW900, SW1417, HuH7, H2009, PANC-1, SW48, Duadi, H358, HCT15, 22Rv1, Hela, RKO, Raji, Jurkat, NCI-H716, MDA-MB-231, NCI-H157 and THP1 cell lines cultured in each medium were treated during the logarithmic growth phase, and the cells were collected and prepared into a uniform cell suspension of known concentration, and then added to the 96-well cell culture plate to make each well contain 1000 cells. Put it into a 5% CO2 incubator and incubate at 37° C. for 20-24 h. The next day, the fully dissolved 3-fold gradient diluted compound was added to each cell culture well, so that the final maximum concentration in the cell culture well was 20 μM, and the culture was continued for 72 hours. In this test, Promega's cell viability detection test is used for detection. The more the cells proliferate, the stronger the final signal intensity will be. The detection instrument is SpectraMax, full wavelength mode. The wells with only DMSO added were used as positive control wells, and the wells without cells inoculated were used as negative control wells. The IC50 value of each compound for different cell proliferation inhibition was calculated to evaluate the inhibitory effect of the compound on different tumor cells."}, "HCT116": {"system": "HCT116", "assay": "Tumor cell proliferation inhibition (Promega cell viability, 72 h)", "conditions": "Homo sapiens, HCT-116, HCT116 cells, read-out: Anti-proliferation IC50", "description": "as §1, §2"}, "NCI-H929": {"system": "NCI-H929", "assay": "Tumor cell proliferation inhibition (Promega cell viability, 72 h)", "conditions": "Homo sapiens, NCI-H929 cells, read-out: Anti-proliferation IC50", "description": "as §1, §2"}, "SW480": {"system": "SW480", "assay": "Tumor cell proliferation inhibition (Promega cell viability, 72 h)", "conditions": "Homo sapiens, SW480 cells, read-out: Anti-proliferation IC50", "description": "as §1, §2"}, "THP1": {"system": "THP1", "assay": "Tumor cell proliferation inhibition (Promega cell viability, 72 h)", "conditions": "Homo sapiens, THP-1, THP1 cells, read-out: Anti-proliferation IC50", "description": "as §1, §2"}, "[1]": {"system": "non-phosphorylated β-catenin", "assay": "Western blot of non-phosphorylated β-catenin content in DU4475 cells", "conditions": "overnight, read-out: Non-phosphorylated β-catenin content inhibition IC50", "from_the_text": "(§3) The Wnt signaling pathway is a key pathway for abnormal tumor growth. In colon cancer, liver cancer, pancreatic cancer and other cancers, a large number of patients have abnormal activation of the Wnt signaling pathway. The Wnt signaling pathway depends on the fine balance of β-catenin protein level. When Wnt signaling is not activated, β-catenin is phosphorylated by CK1 and APC/Axin/GSK-3β complexes, and the β-catenin protein is kept at a low level through ubiquitin-dependent proteasome degradation. When the Wnt signaling pathway is activated, β-catenin maintains a stable state of non-phosphorylation, and non-phosphorylated β-catenin can be transported into the nucleus through Rac1 and other factors, and plays a transcriptional regulatory role by binding to LEF/TCF transcription factors in the nucleus, activates downstream target genes such as C-myc and Cyclin D1, and promotes cell proliferation. Therefore, abnormal activation of the Wnt signaling pathway in tumor cells will lead to abnormal proliferation of tumors. […]\n(§4) Add 500 μL of the compound with the highest concentration shown in FIG. 1 to each well of the 6-well cell culture plate, and make a 10-fold gradient dilution of the compound concentration. […] Load the protein sample directly to the SDS-PAGE gel for electrophoresis separation, transfer the protein on the SDS-PAGE gel to the PVDF membrane; after the transfer was completed, the protein was blocked by Western blocking solution, then Rabbit anti-β-catenin non-phospho S37/After T41 (ab278503) was added and the protein was incubated at room temperature for one hour and washed, the content of non-phosphorylated β-catenin was detected by incubation with Goat Anti-Rabbit IgG H&L (HRP) (ab6721). […]"}, "[2]": {"system": "non-phosphorylated β-catenin", "assay": "Western blot of non-phosphorylated β-catenin content in Colo205 cells", "conditions": "for Effect on content of non-phosphorylated β-catenin (active β-catenin), in words: FIG. 1; for IC50: overnight, Western blot, read-out: Non-phosphorylated β-catenin content inhibition IC50", "from_the_text": "The Wnt signaling pathway is a key pathway for abnormal tumor growth. In colon cancer, liver cancer, pancreatic cancer and other cancers, a large number of patients have abnormal activation of the Wnt signaling pathway. The Wnt signaling pathway depends on the fine balance of β-catenin protein level. When Wnt signaling is not activated, β-catenin is phosphorylated by CK1 and APC/Axin/GSK-3β complexes, and the β-catenin protein is kept at a low level through ubiquitin-dependent proteasome degradation. When the Wnt signaling pathway is activated, β-catenin maintains a stable state of non-phosphorylation, and non-phosphorylated β-catenin can be transported into the nucleus through Rac1 and other factors, and plays a transcriptional regulatory role by binding to LEF/TCF transcription factors in the nucleus, activates downstream target genes such as C-myc and Cyclin D1, and promotes cell proliferation. Therefore, abnormal activation of the Wnt signaling pathway in tumor cells will lead to abnormal proliferation of tumors. In order to explore the inhibitory mechanism of the compound on the proliferation of tumor cell lines, the compound AN10250399, AN10250421 or AN10250484 was used to treat sensitive cells Colo205, DU4475 and HepG2, and Western blot was used to detect the content of non-phosphorylated β-catenin in the Wnt pathway to clarify the effect of the compound on content of the non-phosphorylated β-catenin.\nAdd 500 μL of the compound with the highest concentration shown in FIG. 1 to each well of the 6-well cell culture plate, and make a 10-fold gradient dilution of the compound concentration. Then 500 μL of 10^6 Colo205, DU4475 and HepG2 or 500 μL of medium were inoculated into each well, and corresponding solvent treatment was performed simultaneously as negative control wells. The cells were placed in a 5% CO2 cell incubator, cultured overnight at 37° C. The culture medium was removed, washed once with PBS, 200 μL of RIPA buffer containing protease inhibitors was added to each well, and the protein lysate was collected after lysing on ice for 20 min. Add an appropriate amount of concentrated SDS-PAGE protein loading buffer to the collected protein lysate samples, and heat at 100° C. or in a boiling water bath for 3-5 minutes to fully denature the protein. Load the protein sample directly to the SDS-PAGE gel for electrophoresis separation, transfer the protein on the SDS-PAGE gel to the PVDF membrane; after the transfer was completed, the protein was blocked by Western blocking solution, then Rabbit anti-β-catenin non-phospho S37/After T41 (ab278503) was added and the protein was incubated at room temperature for one hour and washed, the content of non-phosphorylated β-catenin was detected by incubation with Goat Anti-Rabbit IgG H&L (HRP) (ab6721). As a control, glyceraldehyde-3-phosphate dehydrogenase (GAPDH) was used as an internal standard protein"}, "[3]": {"system": "non-phosphorylated β-catenin", "assay": "Western blot of non-phosphorylated β-catenin content in HepG2 cells", "conditions": "overnight, read-out: Non-phosphorylated β-catenin content inhibition IC50", "from_the_text": "as §3, §4"}}, "data": [{"smiles": "[2H]C([2H])([2H])N1c2nc(NCc3ccc(Oc4cnc(C(F)(F)F)nc4)nc3)nc3c2N(CCC3)C(=O)[C@]1(C)CO", "note": "[AN10250399]", "values": [{"measurement": "IC50", "setting": "DU4475", "value": 36.9, "unit": "nM"}, {"measurement": "IC50", "setting": "HCT116", "value": 240, "unit": "nM"}, {"measurement": "IC50", "setting": "NCI-H929", "value": 396, "unit": "nM"}, {"measurement": "IC50", "setting": "SW480", "value": 300, "unit": "nM"}, {"measurement": "IC50", "setting": "THP1", "value": "> 10000", "unit": "nM"}, {"measurement": "IC50", "setting": "[1]", "value": 157, "unit": "nM"}, {"measurement": "Effect on content of non-phosphorylated β-catenin (active β-catenin), in words", "setting": "[2]", "value": "decrease the content of non-phosphorylated β-catenin"}, {"measurement": "IC50", "setting": "[2]", "value": 22, "unit": "nM"}, {"measurement": "IC50", "setting": "[3]", "value": 4, "unit": "nM"}]}, {"smiles": "Cc1nc(C(F)(F)F)ncc1Oc1ccc(CNc2nc(C)c3c(n2)N(C)[C@@H](C)C(=O)N3)cn1", "note": "[AN10250484]", "values": [{"measurement": "IC50", "setting": "DU4475", "value": 7.9, "unit": "nM"}, {"measurement": "IC50", "setting": "HCT116", "value": 142, "unit": "nM"}, {"measurement": "IC50", "setting": "NCI-H929", "value": 129, "unit": "nM"}, {"measurement": "IC50", "setting": "SW480", "value": 300, "unit": "nM"}, {"measurement": "IC50", "setting": "THP1", "value": "> 10000", "unit": "nM"}, {"measurement": "IC50", "setting": "[1]", "value": 29, "unit": "nM"}, {"measurement": "Effect on content of non-phosphorylated β-catenin (active β-catenin), in words", "setting": "[2]", "value": "decrease the content of non-phosphorylated β-catenin"}, {"measurement": "IC50", "setting": "[2]", "value": 10, "unit": "nM"}, {"measurement": "IC50", "setting": "[3]", "value": 5.9, "unit": "nM"}]}]}
